Test results: patent publication US5521315A, “Olefin substituted long chain compounds” (priority 1993, dated 1996)
Where two headings read alike, the source gives them in different places.

What was measured:
[1] = tested on: polymorphonuclear leukocytes; conditions: in response to a stimulator of chemotaxis; cited from earlier work
LPAAT = test: Formation of remodeled PA through the PA/DAG pathway (in vitro); format: cell-based; conditions: high PTX concentrations
Description: Even in the presence of PTX, cells continue to form PA through the action of PLD, and DAG is also formed through the action of phospholipase C on PC and PI. The latter pathway is not inhibited by the inventive compounds or PTX. In PTX-treated cells, DAG derived from remodeled and PLA-generated PA is diminished (e.g., 1,2-sn-dioleoyl DAG, 1-alkyl,2-linoleoyl DAG and 1-alkyl,2-docosahexaneolyl DAG). Therefore, the inventive compounds and PTX inhibit the formation of only a certain species of PA and DAG by selectively inhibiting a specific second messenger pathway that is only activated in cells by noxious stimuli, but is not used to signal normal cellular housekeeping functions.

[2] = tested on: tumor necrosis factor (TNF); conditions: cited from earlier work
PUMP-1 = PUMP-1 activity induced by 100 U/ml of IL-1; format: cell-based; conditions: IL-1 100 U/ml
Description: Metalloproteases mediate tissue damage such as glomerular diseases of the kidney, joint destruction in arthritis, and lung destruction in emphysema, and play a role in tumor metastases. Three examples of metalloproteases include a 92 kD type V gelatinase induced by TNF, IL-1 and PDGF plus βFGF, a 72 kD type IV collagenase that is usually constitutive and induced by TNF or IL-1, and a stromelysin/PUMP-1 induced by TNF and IL-1. The inventive compounds can inhibit TNF or IL-1 induction of the 92 kD type V gelatinase inducable metalloprotease. Moreover, the inventive compounds can reduce PUMP-1 activity induced by 100 U/ml of IL-1. […] Accordingly, the inventive compounds prevent induction of certain metalloproteases induced by IL-1 or TNF and are not involved with constitutively produced proteases (e.g., 72 kD type IV collagenase) involved in normal tissue remodeling.

[3] = tested on: ras-transformed NIH/3T3 cells
[4] = tested on: generation of DAG and PA in ras-transformed NIH/3T3 cells; test: Serum-stimulated generation of DAG and PA in ras-transformed NIH/3T3 cells; format: cell-based; conditions: pretreatment of cells
Description: For example, activating ras mutations result in increased generation of DAG on stimulation with mitogens, although the sources of DAG have differed between experimental systems. In nontransformed renal mesangial cells, IL-1 β stimulation increased PLA2 and LPAAT activation, resulting in generation of sn-2 unsaturated PA and subsequent hydrolysis to DAG by phosphatidate phosphohydrolase. The ras transformation in NIH/3T3 cells upregulates serum-stimulated generation of DAG and PA. The specific species of DAG that is stimulated by serum is dioleoyl and for PA are dilinoleoyl and dioleoyl. […] The inhibition occurs either through suppressing the generation of PA de novo from lysoPA, or through inhibition of one or both arms of the Lands cycle. […] Therefore, the ras transformation mediates an upregulation of PA through indirect stimulation of PLA2 and/or LPAAT activity.

cerebral blood flow = conditions: in vivo; cited from earlier work

| SMILES | chemotaxis stimulation [1] | inhibition of formation of remodeled PA (LPAAT) | TNF levels ([2]; normal volunteers) | TNF levels ([2]; with GM-CSF, patients undergoing allogeneic bone marrow transplant) | PUMP-1 activity, % of control levels (PUMP-1) | cytotoxicity in ras-transformed cells [3] | inhibition of ras-transformed cells ([3]; vs parental cells) | inhibition of DAG/PA generation [4] | cerebral blood flow (cerebral blood flow) |
| --- | --- | --- | --- | --- | --- | --- | --- | --- | --- |
| CC(=O)CCCCn1c(=O)c2c(ncn2C)n(C)c1=O [PTX, 1-(5-oxohexyl)-3,7-dimethylxanthine] | stimulate chemotaxis in polymorphonuclear leukocytes | blocks formation of remodeled PA through the PA/DAG pathway at high PTX concentrations | TNF levels were higher among PTX recipients | decrease tumor necrosis factor (TNF) levels | 95% | not associated with significant cytotoxicity | inhibits ras-transformed NIH/3T3 cells more than parental cells | blocks generation of these phospholipid second messengers |  |
| CC(O)CCCCn1c(=O)c2c(ncn2C)n(C)c1=O (stereo not shown) [M1, 1-(5-hydroxyhexyl)-3,7-dimethylxanthine] | stimulate chemotaxis in polymorphonuclear leukocytes |  |  |  |  |  |  |  | increasing cerebral blood flow |
